# Assay results taken from patent US4419352A, “Pyranoquinolinones and analogs thereof” (Fisons Limited, priority 1978, dated 1983).
# Columns and labels:
# [1] = system: human volunteer suffering from specific allergic asthma; assay: antigen inhalation provocation test (F E V1.0, percent protection); format: in vivo; details: F E V1.0, after drug administration
# Experimental: Clinical evaluation of the compounds was carried out using the antigen inhalation provocation test described below:
# The human volunteer selected for test purposes suffered from specific allergic asthma. In this subject an asthma attack normally followed the inhalation of an antigen to which they were specifically sensitive. The degree of asthma provoked by this method can be measured by repeated examination of the air way resistance.
# The antiallergic activity of a compound is estimated from the difference between the maximum percent F E V1.0 reduction following control and test provocations after drug administration conducted under identical experimental conditions.
# The results of the tests are expressed as percent protection according to the formula: [formula]
# anaesthatised cats = assay: blood pressure, heart rate and cardiac output of anaesthetised cats; format: in vivo, cat
# [2] = system: cardiovascular response to isoprenaline; assay: cardiovascular response to isoprenaline in the cat; format: in vivo
# [3] = system: cardiovascular response to isoprenaline; assay: cardiovascular response to isoprenaline in the rat; format: in vivo
# rats = assay: food choice (revulsion) test in rats; format: in vivo, rat
# [4] = sub-cutaneous LD50 in mice; details: mouse, in vivo, sc
# [5] = sub-cutaneous LD50 in rats; details: rat, in vivo, sc
smiles,measurement,setting,value
CCCc1c2nc(C(=O)[O-])cc(Cl)c2cc2c(=O)cc(C(=O)[O-])oc12.[Na+].[Na+],protection against asthma provoked by antigen inhalation,[1],very considerable protection
same,effect on blood pressure,anaesthatised cats,without effect
same,effect on cardiac output,anaesthatised cats,without effect
same,effect on heart rate,anaesthatised cats,without effect
same,alteration of cardiovascular response to isoprenaline,[2],did not alter
same,alteration of cardiovascular response to isoprenaline,[3],did not alter
same,revulsion when rats choose between food source containing it and one which does not,rats,does not produce revulsion
same,LD50,[4],> 2000 mg/kg
same,LD50,[5],> 2000 mg/kg
